Key:
Test in all cases: cells
[1] = system: HCC2218; type: functional, cell-based, Homo sapiens; conditions: Homo sapiens, HCC2218;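 further: cell viability assay read-out, with IC50 given as the concentration that inhibits growth of the cell line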
Description: SANGER: Inhibition of human HCC2218 cell growth in a cell viability assay.

[2] = system: MOLT-16; type: functional, cell-based, Homo sapiens; conditions: Homo sapiens, MOLT-16;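 further: growth inhibition of human MOLT-16 cells, read out with a cell viability assay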
Description: SANGER: Inhibition of human MOLT-16 cell growth in a cell viability assay.

[3] = system: K562; type: functional, cell-based, Homo sapiens; conditions: Homo sapiens, K562
[4] = system: ALL-PO; type: functional, cell-based, Homo sapiens; conditions: Homo sapiens, ALL-PO;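 further: growth inhibition of ALL-PO cells, read out by a cell viability assay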
Description: SANGER: Inhibition of human ALL-PO cell growth in a cell viability assay.

[5] = system: MS-1; type: functional, cell-based, Homo sapiens; conditions: Homo sapiens, MS-1;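 further: growth inhibition of MS-1 cells, read out by cell viability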
Description: SANGER: Inhibition of human MS-1 cell growth in a cell viability assay.

[6] = system: SNU-C2B; type: functional, cell-based; conditions: Homo sapiens;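 further: cell viability readout used to measure compound-driven suppression of SNU-C2B cell proliferation, IC50 marking half-maximal growth inhibition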
Description: SANGER: Inhibition of human SNU-C2B cell growth in a cell viability assay.

[7] = system: SW684; type: functional, cell-based, Homo sapiens; conditions: Homo sapiens, SW684; read-out: IC50;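 further: growth inhibition of human SW684 cells, measured by a cell viability assay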
[8] = system: SK-MEL-2; type: functional, cell-based, Homo sapiens; conditions: Homo sapiens, SK-MEL-2;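 further: growth inhibition of human SK-MEL-2 cells measured with a cell viability assay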
Description: SANGER: Inhibition of human SK-MEL-2 cell growth in a cell viability assay.

[9] = system: DB; type: functional, cell-based, Homo sapiens; conditions: Homo sapiens, DB
Description: SANGER: Inhibition of human DB cell growth in a cell viability assay.

[10] = system: JVM-3; type: functional, cell-based, Homo sapiens; conditions: Homo sapiens, JVM-3;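 further: growth inhibition of human JVM-3 cells, read out with a cell viability assay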
Description: SANGER: Inhibition of human JVM-3 cell growth in a cell viability assay.

[11] = system: LB771-HNC; type: functional, cell-based; conditions: Homo sapiens;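 further: growth inhibition of LB771-HNC human cells, read out with a cell viability assay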
Description: SANGER: Inhibition of human LB771-HNC cell growth in a cell viability assay.

[12] = system: MN-60; type: functional, cell-based, Homo sapiens; conditions: Homo sapiens, MN-60;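 further: growth inhibition of the MN-60 cell line, determined with a cell viability assay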
Description: SANGER: Inhibition of human MN-60 cell growth in a cell viability assay.

[13] = system: NB13; type: functional, cell-based, Homo sapiens; conditions: Homo sapiens, NB13;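 further: cell viability readout measuring growth inhibition of human NB13 cells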
Description: SANGER: Inhibition of human NB13 cell growth in a cell viability assay.

[14] = system: NKM-1; type: functional, cell-based, Homo sapiens; conditions: Homo sapiens, NKM-1;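 further: growth inhibition of NKM-1 cells, read out with a cell viability assay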
Description: SANGER: Inhibition of human NKM-1 cell growth in a cell viability assay.

[15] = system: NCI-H1299; type: functional, cell-based; conditions: Homo sapiens;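 further: growth inhibition of human NCI-H1299 cells, read out by a cell viability assay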
[16] = system: Becker; type: functional, cell-based, Homo sapiens; conditions: Homo sapiens, Becker;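 further: growth inhibition of Becker cells, read out with a cell viability assay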
Description: SANGER: Inhibition of human Becker cell growth in a cell viability assay.

[17] = system: LS-411N; type: functional, cell-based, Homo sapiens; conditions: Homo sapiens, LS-411N
[18] = system: RH-1; type: functional, cell-based, Homo sapiens; conditions: Homo sapiens, RH-1;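 further: growth inhibition of human RH-1 cells, read out with a cell viability assay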
[19] = system: NB6; type: functional, cell-based, Homo sapiens; conditions: Homo sapiens, NB6;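 further: growth inhibition of NB6 cells, read out by a cell viability assay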
Description: SANGER: Inhibition of human NB6 cell growth in a cell viability assay.

[20] = system: NCI-H1648; type: functional, cell-based, Homo sapiens; conditions: Homo sapiens, NCI-H1648;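 further: cell viability assay measuring inhibition of NCI-H1648 cell growth, from the Sanger screening data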
Description: SANGER: Inhibition of human NCI-H1648 cell growth in a cell viability assay.

[21] = system: C8166; type: functional, cell-based, Homo sapiens; conditions: Homo sapiens, C8166;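 further: growth inhibition of human C8166 cells measured by a cell viability assay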
Description: SANGER: Inhibition of human C8166 cell growth in a cell viability assay.

[22] = system: TE-11; type: functional, cell-based; conditions: Homo sapiens;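 further: growth inhibition of human TE-11 cells, read out by a cell viability assay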
Description: SANGER: Inhibition of human TE-11 cell growth in a cell viability assay.

[23] = system: L-428; type: functional, cell-based, Homo sapiens; conditions: Homo sapiens, L-428
Description: SANGER: Inhibition of human L-428 cell growth in a cell viability assay.

[24] = system: COLO-824; type: functional, cell-based, Homo sapiens; conditions: Homo sapiens, COLO-824
Description: SANGER: Inhibition of human COLO-824 cell growth in a cell viability assay.

[25] = system: OMC-1; type: functional, cell-based, Homo sapiens; conditions: Homo sapiens, OMC-1;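 further: growth inhibition of the OMC-1 cell line, measured by a cell viability assay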
[26] = system: MZ2-MEL; type: functional, cell-based, Homo sapiens; conditions: Homo sapiens, MZ2-MEL;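 further: growth inhibition of MZ2-MEL cells read out with a cell viability assay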
Description: SANGER: Inhibition of human MZ2-MEL cell growth in a cell viability assay.

[27] = system: CTV-1; type: functional, cell-based, Homo sapiens; conditions: Homo sapiens, CTV-1;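 further: growth inhibition of the cell line, read out with a cell viability assay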
Description: SANGER: Inhibition of human CTV-1 cell growth in a cell viability assay.

[28] = system: EOL1; type: functional, cell-based, Homo sapiens; conditions: Homo sapiens, EOL1;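 further: growth inhibition of EoL-1 cells, read out by a cell viability assay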
[29] = system: NCI-H1155; type: functional, cell-based, Homo sapiens; conditions: Homo sapiens, NCI-H1155;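 further: cell growth inhibition measured by a viability assay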
Description: SANGER: Inhibition of human NCI-H1155 cell growth in a cell viability assay.

[30] = system: TE-6; type: functional, cell-based, Homo sapiens; conditions: Homo sapiens, TE-6;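 further: growth inhibition of TE-6 cells, read out with a cell viability assay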
Description: SANGER: Inhibition of human TE-6 cell growth in a cell viability assay.

[31] = system: ES3; type: functional, cell-based, Homo sapiens; conditions: Homo sapiens, ES3;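 further: growth inhibition of ES3 cells, read out with a cell viability assay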
Description: SANGER: Inhibition of human ES3 cell growth in a cell viability assay.

[32] = system: Calu-6; type: functional, cell-based, Homo sapiens; conditions: Homo sapiens, Calu-6;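 further: growth of human Calu-6 cells, read out by a cell viability assay, IC50 marking inhibition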
Description: SANGER: Inhibition of human Calu-6 cell growth in a cell viability assay.

[33] = system: LB2241-RCC; type: functional, cell-based, Homo sapiens; conditions: Homo sapiens, LB2241-RCC;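 further: cell viability assay measuring how strongly the cultured human renal carcinoma line is prevented from growing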
[34] = system: NOMO-1; type: functional, cell-based, Homo sapiens; conditions: Homo sapiens, NOMO-1;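 further: growth inhibition of human NOMO-1 cells measured by a cell viability assay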
Description: SANGER: Inhibition of human NOMO-1 cell growth in a cell viability assay.

[35] = system: NB69; type: functional, cell-based, Homo sapiens; conditions: Homo sapiens, NB69;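 further: growth inhibition of NB69 cells, determined by a cell viability assay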
Description: SANGER: Inhibition of human NB69 cell growth in a cell viability assay.

[36] = system: BT-474; type: functional, cell-based, Homo sapiens; conditions: Homo sapiens, BT-474
Description: SANGER: Inhibition of human BT-474 cell growth in a cell viability assay.

[37] = system: KU812 cell line; type: functional, cell-based, Homo sapiens; conditions: Homo sapiens, KU812;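 further: growth inhibition of KU812 cells, read out with a cell viability assay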
Description: SANGER: Inhibition of human KU812 cell growth in a cell viability assay.

[38] = system: COR-L88; type: functional, cell-based, Homo sapiens; conditions: Homo sapiens, COR-L88;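 further: growth inhibition of COR-L88 cells, read out with a cell viability assay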
Description: SANGER: Inhibition of human COR-L88 cell growth in a cell viability assay.

[39] = system: COLO-668; type: functional, cell-based, Homo sapiens; conditions: Homo sapiens, COLO-668
Description: SANGER: Inhibition of human COLO-668 cell growth in a cell viability assay.

[40] = system: TE-1; type: functional, cell-based, Homo sapiens; conditions: Homo sapiens, TE-1;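 further: growth inhibition of the human TE-1 cell line, read out with a cell viability assay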
[41] = system: SNU-5; type: functional, cell-based, Homo sapiens; conditions: Homo sapiens, SNU-5;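 further: cell viability readout used to measure growth inhibition in human NCI-SNU-5 cells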
Description: SANGER: Inhibition of human NCI-SNU-5 cell growth in a cell viability assay.

[42] = system: NCI-H1304; type: functional, cell-based, Homo sapiens; conditions: Homo sapiens, NCI-H1304;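 further: growth inhibition of the cancer cell line, measured in a cell viability assay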
Description: SANGER: Inhibition of human NCI-H1304 cell growth in a cell viability assay.

[43] = system: KM-H2; type: functional, cell-based, Homo sapiens; conditions: Homo sapiens, KM-H2;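 further: growth inhibition of KM-H2 cells, read out by a cell viability assay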
Description: SANGER: Inhibition of human KM-H2 cell growth in a cell viability assay.

[44] = system: NCI-N87; type: functional, cell-based; conditions: Homo sapiens;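 further: growth inhibition of human NCI-N87 cells, read out with a cell viability assay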
Description: SANGER: Inhibition of human NCI-N87 cell growth in a cell viability assay.

[45] = system: SW 954; type: functional, cell-based, Homo sapiens; conditions: Homo sapiens, SW 954;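 further: growth inhibition of SW954 human cancer cells, read out as cell viability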
Description: SANGER: Inhibition of human SW954 cell growth in a cell viability assay.

[46] = system: NCI-H2126; type: functional, cell-based, Homo sapiens; conditions: Homo sapiens, NCI-H2126;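 further: growth inhibition of the cancer cell line, determined with a cell viability readout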
Description: SANGER: Inhibition of human NCI-H2126 cell growth in a cell viability assay.

[47] = system: COLO-320-HSR; type: functional, cell-based, Homo sapiens; conditions: Homo sapiens, COLO-320-HSR;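 further: growth inhibition of COLO-320-HSR cells, determined with a cell viability assay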
Description: SANGER: Inhibition of human COLO-320-HSR cell growth in a cell viability assay.

[48] = system: RS4-11; type: functional, cell-based, Homo sapiens; conditions: Homo sapiens, RS4-11;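 further: growth inhibition of RS4-11 cells, read out by a cell viability assay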
Description: SANGER: Inhibition of human RS4-11 cell growth in a cell viability assay.

[49] = system: ES5; type: functional, cell-based, Homo sapiens; conditions: Homo sapiens, ES5;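 further: growth inhibition of human ES5 cells, read out by a cell viability assay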
Description: SANGER: Inhibition of human ES5 cell growth in a cell viability assay.

[50] = system: SCH; type: functional, cell-based, Homo sapiens; conditions: Homo sapiens, SCH;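 further: growth inhibition of human SCH cells, read out in a cell viability assay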
Description: SANGER: Inhibition of human SCH cell growth in a cell viability assay.

Measured: IC50

C[C@@H](Oc1cc(-c2cnn(C3CCNCC3)c2)cnc1N)c1c(Cl)ccc(F)c1Cl [CRIZOTINIB]
596 nM: [27]
1960 nM: [2]
106 nM: [41]
1720 nM: [3]
not listed: [50]
> 2000 nM: all other assays above

COc1cc(N2CCC(N3CCN(C)CC3)CC2)ccc1Nc1ncc(Cl)c(Nc2ccccc2S(=O)(=O)C(C)C)n1 [TAE-684]
1200 nM: [45]
898 nM: [11]
876 nM: [2]
245 nM: [4]
161 nM: [22]
988 nM: [33]
1370 nM: [13]
198 nM: [47]
691 nM: [40]
675 nM: [17]
1690 nM: [14]
1130 nM: [42]
318 nM: [35]
556 nM: [27]
279 nM: [20]
not listed: [50]
> 2000 nM: all other assays above

CN(C)CCOc1ccc(-c2nc(-c3ccncc3)c(-c3ccc4c(c3)CC/C4=N\O)[nH]2)cc1 [SB590885]
1060 nM: [1]
180 nM: [28]
1670 nM: [14]
738 nM: [8]
1580 nM: [41]
not listed: [20]
> 5000 nM: all other assays above

— ChEMBL document CHEMBL1201861, “Genomics of Drug Sensitity in Cancer screening data, Wellcome Trust Sanger Institute”
